Data on 9 compounds can be found in US20240190889A1, “NEW CYCLOPENTA-THIENO-DIAZEPINE DERIVATIVES AS GABA A GAMMA1 POSITIVE ALLOSTERIC MODULATORS” (Hoffmann-La Roche Inc., priority 2021, published 2024).

Test [1] has as its target human GABAA α5β2γ1 receptor (Homo sapiens (Human), UniProt P31644+Q8N1C3). The test is described as follows: Radioligand binding assay, competition for [3H]RO7239181, γ1-containing GABAA subtypes. To be noted: membranes from HEK293F cells, mean of two determinations. The method, then:
(§1) Membrane Preparation and Binding Assay for γ1-containing GABAA Subtypes
The affinity of compounds at GABAA γ1 subunit-containing receptors was measured by competition for [^3H]RO7239181 (67.3 Ci/mmol: Roche) binding to membranes from HEK293F cells (ThermoFisher R79007) expressing human (transiently transfected) receptors of composition α5β2γ1, α2β2γ1, α1β2γ1. For better protein expression of the α2 subunit-containing receptors, the 28 amino acid long signal peptide (Metl to Ala28) of the human GABAA α2 subunit was substituted by the 31 amino acid long signal peptide (Met1 to Ser31) of human GABAA α5 subunit.
(§2) Harvested pellets from HEK293F cells expressing the different GABAA receptor subtypes were resuspended in Mannitol Buffer pH 7.2-7.4 (Mannitol 0.29 M, Tricthylamine 10 mM. Acetic acid 10 mM. EDTA 1 mM plus protease inhibitors (20 tablets Complete. Roche Diagnostics Cat. No. 05 056 489 001 per liter)), washed two times and then resuspended at 1:10 to 1:15 dilution in the same buffer. Cell disruption was performed by stirring the suspension in a Parr vessel #4637 at 435 psi for 15 minutes, and then the suspensions were centrifuged at 1000×g for 15 minutes at 4° C. (Beckman Avanti J-HC: rotor JS-4.2). The supernatant (S1) was transferred in a 21 Schott flask and the pellet (P1) was resuspended with Mannitol Buffer up to 175 ml. The resuspended pellet was transferred into a 250 ml Corning centrifugal beaker and centrifuged at 1500 ×g for 10 minutes at 4° C. (Beckman Avanti J-HC: rotor JS-4.2). The supernatant (S1) was then transferred in the 21 Schott flask and the pellet was discarded. The supernatants (S1) were centrifuged in 500ml Beckman polypropylene centrifugal beaker at 15 000×g for 30 minutes at 4° C. (Beckman Avanti J-20 XP; rotor JLA-10.500). The pellet (P2) was resuspended with Mannitol Buffer 1:1 and frozen at −80° C. The supernatant (S2) was centrifuged in 100 ml Beckman polypropylene centrifugal tubes at 48000×g for 50 minutes at 4 °C (Beckman Avanti J-20 XP: rotor JA-18). The supernatant (S3) was discarded and the pellet (P3) was resuspended with 1:1 Mannitol Buffer. The P2 and P3 protein concentration was determined with the BIORAD Standard assay method with bovine serum albumin as standard and measured on the NANO-Drop 1000. The membrane suspension was aliquots (500μl per tube) and stored at −80° C. until required.
(§3) Membrane homogenates were resuspended and polytronised (Polytron PT1200E Kinematica AG) in Potassium Phosphate 10 mM, KCl 100 mM binding buffer at pH 7.4 to a final assay concentration determined with a previous experiment.
(§4) Radioligand binding assays were carried out in a volume of 200 μL (96-well plates) which contained 100 μL of cell membranes. [^3H]RO7239181 at a concentration of 1.5 nM (α5β2γ1) or 20-30 nM (α1β2γ1, α2β2γ1) and the test compound in the range of [0.3-10000]33 10^−9 M. Nonspecific binding was defined by 10×10^6 (α5β2γ1) and 30×10^6 M RO7239181 and typically represented less than 5% (α5β2γ1) and less than 20% (α1β2γ1, α2β2γ1) of the total binding. Assays were incubated to equilibrium for 1 hour at 4° C. and then, membranes were filtered onto unifilter (96-well white microplate with bonded GF/C filters preincubated 20-50 minutes in 0.3% Polyethylenimine) with a Filtermate 196 harvester (Packard BioScience) and washed 4 times with cold Potassium Phosphate 10 mM pH 7.4. KCl 100 mM binding buffer. After anhydrousing, filter-retained radioactivity was detected by liquid scintillation counting. Ki values were calculated using Excel-Fit (Microsoft) and are the means of two determinations.
Representative test results, obtained by the above described assay measuring binding affinity to HEK293 cells expressing human (h) receptors, are shown in the Table 1.

Test [2] has as its target human GABAA α1β3γ2 receptor (Homo sapiens (Human), UniProt P14867+P18507). The test is described as follows: Radioligand binding assay, competition for [3H]Flumazenil, γ2-containing GABAA subtypes. The following applies: for γ2/γ1 Selectivity Ratio: Ki α1β3γ2 (nM)/Ki α2β2γ1 (nM); for LogSel: Log[Ki α1β3γ2 (nM)/Ki α2β2γ1 (nM)]. The method, then:
Membrane Preparation and Binding Assay for γ2-containing GABAA Subtypes
The affinity of compounds at GABAA γ2 subunit-containing receptors was measured by competition for [^3H]Flumazenil (81.1 Ci/mmol; Roche) binding to HEK293F cells expressing human (transiently transfected) receptors of composition α1β3γ2.
Harvested pellets from HEK293F cells expressing the different GABAA γ2 receptor subtypes were resuspended in Mannitol Buffer pH 7,2-7,4 and processed as described above for the cells expressing the GABAA γ1 subunit-containing receptors.
Assays were incubated to equilibrium for 1 hour at 4° C, and harvested onto GF/C uni-filters (Packard) by filtration using a Packard harvester and washing with ice-cold wash buffer (50 mM Tris; pH 7.5). After anhydrousing, filter-retained radioactivity was detected by liquid scintillation counting. Ki values were calculated using Excel-Fit (Microsoft) and are the means of two determinations.

For test [3], the target named is human GABAA α2β2γ1 receptor (Homo sapiens (Human), UniProt P47869+Q8N1C3). The test is described as follows: Radioligand binding assay, competition for [3H]RO7239181, γ1-containing GABAA subtypes. The method, then: as §1
The affinity of compounds at GABAA γ1 subunit-containing receptors was measured by competition for [^3H]RO7239181 (67.3 Ci/mmol: Roche) binding to membranes from HEK293F cells (ThermoFisher R79007) expressing human (transiently transfected) receptors of composition α5β2γ1, α2β2γ1, α1β2γ1.
as §2, §3
as §4, with “[^3H]RO7239181 at a concentration of 1.5 nM (α5β2γ1) or 20-30 nM (α1β2γ1, α2β2γ1) and the test compound in the range of [0.3-10000]33 10^−9 M. Nonspecific binding was defined by 10×10^6 (α5β2γ1) and 30×10^6 M RO7239181 and typically represented less than 5% (α5β2γ1) and less than 20% (α1β2γ1, α2β2γ1) of the total binding.” left out

Setting [4] is: read-out: Ki h-GABAA α2β2γ1, membranes from HEK293F cells, [3H]RO7239181 20-30 nM, mean of two determinations.
[5] abbreviates: HEK293F cell membranes, [3H]Flumazenil 1 nM, mean of two determinations, read-out: Ki h-GABAA α1β3γ2.

Structures are written as SMILES. Read-outs that look alike come from different tables or passages of the source.

Regarding `C[C@@H]1N=C(c2c(F)cccc2Cl)c2c(sc3c2C[C@@H](C(F)F)C3)-n2c(C3CC3)nnc21` [Example 11, (7S,13R)-9-(2-chloro-6-fluoro-phenyl)-3-cyclopropyl-13-(difluoromethyl)-7-methyl-16-thia-2,4,5,8-tetrazatetracyclo [8.6.0.02,6.011,15]hexadeca-1(10),3,5,8,11(15)-pentaene], the inhibition constant Ki came out at 3.4 nM in test [1], 1120 nM in test [2], 10.3 nM in test [3] and 10.3 nM in test [3] (setting [4]). Also, the “γ2/γ1 Selectivity Ratio” value in test [2] turned out to be 108.6. The LogSel in test [2] is listed as 2.04.
For the compound `C[C@@H]1N=C(c2c(F)cccc2Cl)c2c(sc3c2C[C@@H](C(F)F)C3)-n2c(-c3cccnn3)nnc21` [Example 12, (7S,13R)-9-(2-chloro-6-fluoro-phenyl)-13-(difluoromethyl)-7-methyl-3-pyridazin-3-yl-16-thia-2,4,5,8-tetrazatetracyclo [8.6.0.02,6.011,15]hexadeca-1(10),3,5,8,11(15)-pentaene], the Ki is 3.7 nM in test [1], 2360 nM in test [2], 13.4 nM in test [3] and 13.4 nM in test [3] (setting [4]). Besides, in test [2], the “γ2/γ1 Selectivity Ratio” value turned out to be 176.0. Moreover, the LogSel in test [2] came to 2.25.
`Cc1nnc2n1-c1sc3c(c1C(c1c(F)cccc1F)=N[C@H]2C)C[C@@H](C(F)(F)F)C3` [Example 13, (7S,13R)-9-(2,6-difluorophenyl)-3,7-dimethyl-13-(trifluoromethyl)-16-thia-2,4,5,8-tetrazatetracyclo [8.6.0.02,6.011,15]hexadeca-1(10),3,5,8,11(15)-pentaene]: the Ki in test [1] was determined as 5.9 nM; in test [2] it was 705 nM; in test [3], 16.2 nM; in test [3] (setting [4]), 16.2 nM. Besides, in test [2], the “γ2/γ1 Selectivity Ratio” value turned out to be 43.5. Besides, the LogSel in test [2] worked out at 1.64.
Turning to `Cc1nnc2n1-c1sc3c(c1C(c1c(F)cccc1F)=NC2)C[C@@H](C)C3` [Example 14, (13R)-9-(2,6-difluorophenyl)-3,13-dimethyl-16-thia-2,4,5,8-tetrazatetracyclo [8.6.0.02,6.011,15]hexadeca-1(10),3,5,8,11(15)-pentaene], the Ki was found to be 1.6 nM in test [1], 101 nM in test [2], 2.8 nM in test [3] and 2.8 nM in test [3] (setting [4]). Further, the “γ2/γ1 Selectivity Ratio” value in test [2] turned out to be 36.2. In test [2], this compound yielded a LogSel of 1.56.
In the case of `Cc1nnc2n1-c1sc3c(c1C(c1c(F)cccc1F)=N[C@H]2C)C[C@@H](C)C3` [Example 15, (7S,13R)-9-(2,6-difluorophenyl)-3,7,13-trimethyl-16-thia-2,4,5,8-tetrazatetracyclo [8.6.0.02,6.011,15]hexadeca-1(10),3,5,8,11(15)-pentaene], the Ki in test [1] turned out to be 1.4 nM; in test [2] it was 101 nM; in test [3] it was 6.3 nM; in test [3] (setting [4]), 6.3 nM. For the same compound, the “γ2/γ1 Selectivity Ratio” value in test [2] came to 16.1. In test [2], this compound displayed a LogSel of 1.21.
`Cc1nc2n(n1)-c1sc3c(c1C(c1c(F)cccc1F)=N[C@H]2C)C[C@@H](C(F)F)C3` [Example 16, (7S,13R)-13-(difluoromethyl)-9-(2,6-difluorophenyl)-4,7-dimethyl-16-thia-2,3,5,8-tetrazatetracyclo [8.6.0.02,6.011,15]hexadeca-1(10),3,5,8,11(15)-pentaene]: the Ki stood at 1 nM in test [1], 448 nM in test [2], 2.3 nM in test [3] and 2.3 nM in test [3] (setting [4]). The “γ2/γ1 Selectivity Ratio” value in test [2] is 191.1. The compound further came in with a LogSel in test [2] of 2.28.
Regarding `Cc1nc2n(n1)-c1sc3c(c1C(c1c(F)cccc1F)=N[C@H]2C)C[C@H](C(F)F)C3` [Example 17, (7S,13S)-13-(difluoromethyl)-9-(2,6-difluorophenyl)-4,7-dimethyl-16-thia-2,3,5,8-tetrazatetracyclo [8.6.0.02,6.011,15]hexadeca-1(10),3,5,8,11(15)-pentaene], the Ki was 31.6 nM in test [1], 6640 nM in test [2], 57.9 nM in test [3] and 57.9 nM in test [3] (setting [4]). Further, in test [2], the “γ2/γ1 Selectivity Ratio” value turned out to be 114.8. Also, the LogSel in test [2] is recorded as 2.06.
As for `C[C@@H]1N=C(c2c(F)cccc2F)c2c(sc3c2C[C@@H](C(F)F)C3)-n2nc(C(=O)NCCO)nc21` [Example 18, (7S,13R)-13-(difluoromethyl)-9-(2,6-difluorophenyl)-N-(2-hydroxyethyl)-7-methyl-16-thia-2,3,5,8-tetrazatetracyclo [8.6.0.02,6.011,15]hexadeca-1(10),3,5,8,11(15)-pentaene-4-carboxamide], the Ki was 2.5 nM in test [1], 614 nM in test [2] (setting [5]), 5.7 nM in test [3] and 5.7 nM in test [3] (setting [4]). Also, the “γ2/γ1 Selectivity Ratio” value in test [2] was found to be 107.2. The compound also registered a LogSel in test [2] of 2.03.
Consider `C[C@@H]1N=C(c2c(F)cccc2F)c2c(sc3c2C[C@@H](C(F)F)C3)-n2nc(C(=O)N3CCS(=O)(=O)CC3)nc21` [Example 19, [(7S,13R)-13-(difluoromethyl)-9-(2,6-difluorophenyl)-7-methyl-16-thia-2,3,5,8-tetrazatetracyclo [8.6.0.02,6.011,15]hexadeca-1(10),3,5,8,11(15)-pentaen-4-yl]-(1,1-dioxo-1,4-thiazinan-4-yl)methanone], for which the Ki in test [1] is 4.6 nM; in test [2] (setting [5]) it was 873 nM; in test [3] it was 5.4 nM; in test [3] (setting [4]), 5.4 nM. Further, the “γ2/γ1 Selectivity Ratio” value in test [2] was 162.3. Besides, the LogSel in test [2] is on record as 2.21.

The term Ki denotes the dissociation constant of the complex between target and ligand, obtained from inhibition or displacement.
